Columns and labels:
α4β7 integrin = target: T1, α4β7 integrin (Homo sapiens, UniProt P13612+P26010); assay: α4β7 Integrin Cell Capture Assay; assay type: cell-based; settings: capture of α4β7 integrin expressing RPM18866 cells on MadCAM-1 extracellular domain-coated plate
T1 construct: monitoring the capture of α4β7 integrin expressing cells; endogenous in cells; host or cells: RPMI8866
T1 sequence (P13612 34-1032): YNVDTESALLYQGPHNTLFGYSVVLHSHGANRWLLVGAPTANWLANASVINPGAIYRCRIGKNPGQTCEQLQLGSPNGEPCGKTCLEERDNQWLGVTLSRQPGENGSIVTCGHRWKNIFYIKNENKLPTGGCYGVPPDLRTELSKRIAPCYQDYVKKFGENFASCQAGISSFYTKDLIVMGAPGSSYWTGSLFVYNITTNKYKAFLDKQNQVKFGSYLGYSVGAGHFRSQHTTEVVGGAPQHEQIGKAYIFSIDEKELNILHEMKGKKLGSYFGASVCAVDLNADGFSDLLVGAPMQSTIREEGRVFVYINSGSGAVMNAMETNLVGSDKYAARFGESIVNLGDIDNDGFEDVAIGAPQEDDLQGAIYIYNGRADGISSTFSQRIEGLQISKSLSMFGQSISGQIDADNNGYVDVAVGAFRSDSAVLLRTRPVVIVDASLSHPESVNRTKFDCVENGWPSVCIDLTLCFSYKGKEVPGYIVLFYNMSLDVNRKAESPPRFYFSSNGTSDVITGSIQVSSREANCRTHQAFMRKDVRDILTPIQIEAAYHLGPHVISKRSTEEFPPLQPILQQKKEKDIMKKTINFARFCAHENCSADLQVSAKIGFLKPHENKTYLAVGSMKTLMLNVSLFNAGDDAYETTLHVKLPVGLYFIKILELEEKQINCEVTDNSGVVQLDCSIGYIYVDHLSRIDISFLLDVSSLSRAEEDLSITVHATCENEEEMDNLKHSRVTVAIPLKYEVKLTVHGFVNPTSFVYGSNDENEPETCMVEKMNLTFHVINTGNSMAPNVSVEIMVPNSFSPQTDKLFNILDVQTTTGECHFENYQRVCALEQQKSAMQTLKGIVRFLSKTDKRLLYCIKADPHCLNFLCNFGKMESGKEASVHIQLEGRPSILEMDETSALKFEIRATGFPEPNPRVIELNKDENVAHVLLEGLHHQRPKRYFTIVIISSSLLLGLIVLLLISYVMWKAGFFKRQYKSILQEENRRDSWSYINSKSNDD
T1 sequence (P26010 20-798): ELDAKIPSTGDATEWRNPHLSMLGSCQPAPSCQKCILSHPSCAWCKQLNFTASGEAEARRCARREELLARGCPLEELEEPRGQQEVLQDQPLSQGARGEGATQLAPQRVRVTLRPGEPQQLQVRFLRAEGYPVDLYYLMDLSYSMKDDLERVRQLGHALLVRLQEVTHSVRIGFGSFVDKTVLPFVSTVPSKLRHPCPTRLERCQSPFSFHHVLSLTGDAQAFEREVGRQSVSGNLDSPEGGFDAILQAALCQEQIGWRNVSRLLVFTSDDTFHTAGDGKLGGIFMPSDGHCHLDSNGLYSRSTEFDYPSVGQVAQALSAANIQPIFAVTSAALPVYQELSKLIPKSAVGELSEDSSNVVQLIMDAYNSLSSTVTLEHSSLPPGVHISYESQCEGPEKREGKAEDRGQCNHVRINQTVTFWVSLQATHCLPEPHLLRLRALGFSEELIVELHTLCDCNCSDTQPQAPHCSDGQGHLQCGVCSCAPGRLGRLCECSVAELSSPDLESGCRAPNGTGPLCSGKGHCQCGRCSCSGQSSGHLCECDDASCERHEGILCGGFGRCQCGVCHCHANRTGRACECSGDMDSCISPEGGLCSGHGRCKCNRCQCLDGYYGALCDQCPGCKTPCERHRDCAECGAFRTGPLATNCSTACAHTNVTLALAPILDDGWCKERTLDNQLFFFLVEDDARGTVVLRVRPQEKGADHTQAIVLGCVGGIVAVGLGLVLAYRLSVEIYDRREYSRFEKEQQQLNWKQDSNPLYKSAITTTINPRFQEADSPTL
Protocol: The potency of inhibitors in preventing α4β7 integrin interaction with MadCAM-1 was measured by monitoring the capture of α4β7 integrin expressing cells on a recombinant MadCAM-1 extracellular domain-coated plate.
384-well plates (Corning 3702) were coated with MadCAM-1 extracellular domain by dispensing 20 μL of MAdCAM-1 at 1.0 μg/mL per well and incubating overnight at 4° C. The plates were then washed with PBS and blocked with 3% BSA for 2 hours before being washed again.
(§1) RPM18866 cells were spun down and re-suspended in assay medium (DMEM+0.5% FBS+0.5 mM MnCl2) at a density of 0.5×10^6 cells/mL. The cells were then dispensed (60 μL/well) to a 384-well plate (Greiner 781280) that was previously spotted with 60 nL of test compound per well. The plates were incubated at 37° C. for 1 hour. 50 μL of cells were transferred to the blocked, MadCAM-1-coated plates and incubated for 30 minutes at 37° C. 10 μL of 12% glutaraldehyde containing Hoechst 33342 (0.06 mg/mL) was added to the cells (2% glutaraldehyde and 0.01 mg/mL final concentrations). The plates were incubated for 90 minutes at room temperature. The plates were then washed 3 times with 70 μL of PBS per well and imaged on a Cellomics ArrayScan instrument. The cells that were bound to the plate were counted and plotted against the compound concentration to determine the EC50 of the test compounds.

α4β1 integrin = target: T2, α4β1 integrin (Homo sapiens, UniProt P05556+P13612); assay: α4β1 Cell Capture Assay; assay type: cell-based; settings: capture of α4β1 expressing Jurkat cells on VCAM-1 extracellular domain-coated plate
T2 construct: monitoring the capture of α4β1 expressing cells; endogenous in cells; host or cells: Jurkat
Protocol: The potency of inhibitors in preventing α4β1 integrin interaction with VCAM-1 was measured by monitoring the capture of α4β1 expressing cells to a recombinant VCAM-1 extracellular domain-coated plate.
384-well plates (Corning 3702) were coated with VCAM-1 extracellular domain by dispensing 20 μL of VCAM-1 at 0.5 μg/ml per well and incubating overnight at 4° C. The plates were then washed with PBS and blocked with 3% BSA for 2 hours before being washed again.
as §1, with “Jurkat cells” for “RPM18866 cells”, “0.5×10^6 cells/ml.” for “0.5×10^6 cells/mL.”, “blocked, VCAM-1-coated” for “blocked, MadCAM-1-coated”, “10 μl” for “10 μL”, “0.01 mg/ml Hoechst 33342” for “0.01 mg/mL”

T2 sequence (P05556 21-798, one chain of several): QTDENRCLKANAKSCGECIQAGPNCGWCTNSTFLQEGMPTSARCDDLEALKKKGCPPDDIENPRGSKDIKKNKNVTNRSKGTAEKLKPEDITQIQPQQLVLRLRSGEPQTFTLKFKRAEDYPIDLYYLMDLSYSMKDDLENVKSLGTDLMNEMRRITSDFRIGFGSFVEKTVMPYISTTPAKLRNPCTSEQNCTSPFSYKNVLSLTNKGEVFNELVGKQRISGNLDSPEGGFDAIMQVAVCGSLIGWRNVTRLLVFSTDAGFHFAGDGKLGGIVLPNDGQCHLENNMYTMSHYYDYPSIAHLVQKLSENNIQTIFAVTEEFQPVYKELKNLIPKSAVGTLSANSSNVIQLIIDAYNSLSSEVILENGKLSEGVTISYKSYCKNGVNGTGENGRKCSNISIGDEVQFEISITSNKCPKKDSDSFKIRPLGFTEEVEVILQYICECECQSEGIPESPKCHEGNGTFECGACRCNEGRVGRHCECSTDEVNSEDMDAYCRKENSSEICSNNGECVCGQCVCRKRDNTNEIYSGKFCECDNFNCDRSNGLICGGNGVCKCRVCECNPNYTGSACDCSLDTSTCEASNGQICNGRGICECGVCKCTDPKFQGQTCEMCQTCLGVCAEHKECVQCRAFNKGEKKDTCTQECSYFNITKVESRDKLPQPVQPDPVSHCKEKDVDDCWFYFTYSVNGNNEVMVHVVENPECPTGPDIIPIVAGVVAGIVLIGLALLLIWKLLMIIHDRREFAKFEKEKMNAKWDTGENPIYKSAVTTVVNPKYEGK

SMILES	EC50 (α4β7 integrin; Table 2) [nM]	EC50 (α4β1 integrin; Table 2) [nM]	EC50 (α4β7 integrin; Table 1) [nM]	EC50 (α4β1 integrin; Table 1) [nM]
CN(C)c1ccc2c(c1)c(=O)n(-c1ccc(C[C@H](NC(=O)c3c(F)cc(N4CCOC[C@@H]4C(F)(F)F)cc3F)C(=O)O)cc1)c(=O)n2C [Example 36]	1.2	27.3		
Cn1c(=O)n(-c2c(F)cc(C[C@H](NC(=O)c3c(F)cc(N4CCOC[C@@H]4C(F)(F)F)cc3F)C(=O)O)cc2F)c(=O)c2ccncc21 [Example 82]	0.15	4.5		
Cc1cc(N2CCOC[C@@H]2C(F)(F)F)cc(F)c1C(=O)N[C@@H](Cc1ccc(-n2c(=O)c3ccncc3n(C)c2=O)nc1)C(=O)O [Example 15, (S)-2-(2-fluoro-6-methyl-4-((R)-3-(trifluoromethyl)morpholino)benzamido)-3-(6-(1-methyl-2,4-dioxo-1,4-dihydropyrido[3,4-d]pyrimidin-3(2H)-yl)pyridin-3-yl)propanoic acid]			0.21	10.6
Cc1cc(N2CCOC[C@@H]2C(F)(F)F)cc(F)c1C(=O)N[C@@H](Cc1ccc(-n2c(=O)c3ccncc3n(C)c2=O)c(F)c1)C(=O)O [Example 84]	0.05	1.7		
CC[C@@H](Nc1cc(F)c(C(=O)N[C@@H](Cc2ccc(-n3c(=O)c4ccncc4n(C)c3=O)nc2)C(=O)O)c(F)c1)C(F)(F)F [Example 9, (S)-2-(2,6-difluoro-4-(((R)-1,1,1-trifluorobutan-2-yl)amino)benzamido)-3-(6-(1-methyl-2,4-dioxo-1,4-dihydropyrido[3,4-d]pyrimidin-3(2H)-yl)pyridin-3-yl)propanoic acid]			1.6	117
CC[C@@H](Nc1cc(F)c(C(=O)N[C@@H](Cc2ccc(-c3c(C(F)(F)F)cc(C)n(C)c3=O)cc2)C(=O)O)c(F)c1)C(F)(F)F [Example 1, (S)-2-(2,6-difluoro-4-(((R)-1,1,1-trifluorobutan-2-yl)amino)benzamido)-3-(4-(1,6-dimethyl-2-oxo-4-(trifluoromethyl)-1,2-dihydropyridin-3-yl)phenyl)propanoic acid]			1.4	10.3
Cc1cc(N2CCOC[C@@H]2C(F)(F)F)cc(F)c1C(=O)N[C@@H](Cc1ccc(-n2c(=O)c3ccncc3n(C)c2=O)c(C(F)(F)F)c1)C(=O)O (atropisomer, axis not shown) [Example 90]	0.7	9.7		
Cc1c(-c2ccc(C[C@H](NC(=O)c3c(F)cc(N4CCOC[C@@H]4C(F)(F)F)cc3F)C(=O)O)cc2)c(=O)n(C)c(=O)n1C [Example 37]	0.4	9.8		
Cc1cc(N2CCOC[C@@H]2C(F)(F)F)cc(F)c1C(=O)N[C@@H](Cc1ccc(-n2c(=O)c3c(n(C)c2=O)COCC3)cc1)C(=O)O [Example 63, (S)-2-(2-fluoro-6-methyl-4-((R)-3-(trifluoromethyl)morpholino)benzamido)-3-(4-(1-methyl-2,4-dioxo-1,2,4,5,6,8-hexahydro-3H-pyrano[3,4-d]pyrimidin-3-yl)phenyl)propanoic acid]			0.1	3.7
Cc1cc(C(F)(F)F)c(-c2ccc(C[C@H](NC(=O)c3c(F)cc(N4CCOC[C@@H]4C(F)(F)F)cc3F)C(=O)O)cc2F)c(=O)n1C [Example 6, (S)-2-(2,6-difluoro-4-((R)-3-(trifluoromethyl)morpholino)benzamido)-3-(4-(1,6-dimethyl-2-oxo-4-(trifluoromethyl)-1,2-dihydropyridin-3-yl)-3-fluorophenyl)propanoic acid]			0.3	9.9
Cc1cc(N2CCOC[C@@H]2C(F)(F)F)cc(F)c1C(=O)N[C@@H](Cc1cc(F)c(-n2c(=O)c3ccncc3n(C)c2=O)c(F)c1)C(=O)O [Example 80]	0.06	2.1		
CC[C@@H](Nc1cc(F)c(C(=O)N[C@@H](Cc2ccc(-c3c(C)c4cc(F)ccc4n(C)c3=O)cc2)C(=O)O)c(F)c1)C(F)(F)F [Example 34]	3.2	61.4		
Cc1cc(N2CCOC[C@@H]2C(F)(F)F)cc(F)c1C(=O)N[C@@H](Cc1ccc(-n2c(=O)c3cc(C#N)ccc3n(C)c2=O)nc1)C(=O)O [Example 74]	0.14	5.2		
Cn1c(=O)c(-c2ccc(C[C@H](NC(=O)c3c(F)cc(N4CCOC[C@@H]4C(F)(F)F)cc3F)C(=O)O)cc2)cc2cnccc21 [Example 35]	1.1	34.1		
Cc1c(C(F)(F)F)cn(C)c(=O)c1-c1ccc(C[C@H](NC(=O)c2c(F)cc(N3CCOC[C@@H]3C(F)(F)F)cc2F)C(=O)O)cc1 [Example 4, (S)-2-(2,6-difluoro-4-((R)-3-(trifluoromethyl)morpholino)benzamido)-3-(4-(1,4-dimethyl-2-oxo-5-(trifluoromethyl)-1,2-dihydropyridin-3-yl)phenyl)propanoic acid]			1.2	63.7
CC[C@@H](Nc1cc(C)c(C(=O)N[C@@H](Cc2ccc(-n3c(=O)c4ccncc4n(C)c3=O)nc2)C(=O)O)c(F)c1)C(F)(F)F [Example 11, (S)-2-(2-fluoro-6-methyl-4-(((R)-1,1,1-trifluorobutan-2-yl)amino)benzamido)-3-(6-(1-methyl-2,4-dioxo-1,4-dihydropyrido[3,4-d]pyrimidin-3(2H)-yl)pyridin-3-yl)propanoic acid]			0.5	30.1

Reference: patent US11578069B2, “Compounds for inhibition of α4 β7 integrin” (Gilead Sciences, Inc., priority 2019, dated 2023)
